# Assay results from ChEMBL document CHEMBL4130465, “Berchemiosides A-C, 2-Acetoxy-ω-phenylpentaene Fatty Acid Triglycosides from the Unripe Fruits of Berchemia berchemiifolia” (J Nat Prod, 2017).
# Active and inactive are the calls of the source. No cut-off for these calls is given here.
# Legend:
# HCT-116 [1] = assay: Cytotoxicity against human HCT116 cells up to 100 uM after 48 hrs by MTT assay; type: functional, cell-based
# [2] = target: Xanthine dehydrogenase/oxidase (Homo sapiens, UniProt P47989); assay: Inhibition of xanthine oxidase (unknown origin) using xanthine as substrate pretreated for 10 mins followed by substrate addition measured every 2 mins for 6 mins; settings: for inhibition (INH): human, 0.1 h
# Xanthine dehydrogenase/oxidase, sequence (P47989 whole entry): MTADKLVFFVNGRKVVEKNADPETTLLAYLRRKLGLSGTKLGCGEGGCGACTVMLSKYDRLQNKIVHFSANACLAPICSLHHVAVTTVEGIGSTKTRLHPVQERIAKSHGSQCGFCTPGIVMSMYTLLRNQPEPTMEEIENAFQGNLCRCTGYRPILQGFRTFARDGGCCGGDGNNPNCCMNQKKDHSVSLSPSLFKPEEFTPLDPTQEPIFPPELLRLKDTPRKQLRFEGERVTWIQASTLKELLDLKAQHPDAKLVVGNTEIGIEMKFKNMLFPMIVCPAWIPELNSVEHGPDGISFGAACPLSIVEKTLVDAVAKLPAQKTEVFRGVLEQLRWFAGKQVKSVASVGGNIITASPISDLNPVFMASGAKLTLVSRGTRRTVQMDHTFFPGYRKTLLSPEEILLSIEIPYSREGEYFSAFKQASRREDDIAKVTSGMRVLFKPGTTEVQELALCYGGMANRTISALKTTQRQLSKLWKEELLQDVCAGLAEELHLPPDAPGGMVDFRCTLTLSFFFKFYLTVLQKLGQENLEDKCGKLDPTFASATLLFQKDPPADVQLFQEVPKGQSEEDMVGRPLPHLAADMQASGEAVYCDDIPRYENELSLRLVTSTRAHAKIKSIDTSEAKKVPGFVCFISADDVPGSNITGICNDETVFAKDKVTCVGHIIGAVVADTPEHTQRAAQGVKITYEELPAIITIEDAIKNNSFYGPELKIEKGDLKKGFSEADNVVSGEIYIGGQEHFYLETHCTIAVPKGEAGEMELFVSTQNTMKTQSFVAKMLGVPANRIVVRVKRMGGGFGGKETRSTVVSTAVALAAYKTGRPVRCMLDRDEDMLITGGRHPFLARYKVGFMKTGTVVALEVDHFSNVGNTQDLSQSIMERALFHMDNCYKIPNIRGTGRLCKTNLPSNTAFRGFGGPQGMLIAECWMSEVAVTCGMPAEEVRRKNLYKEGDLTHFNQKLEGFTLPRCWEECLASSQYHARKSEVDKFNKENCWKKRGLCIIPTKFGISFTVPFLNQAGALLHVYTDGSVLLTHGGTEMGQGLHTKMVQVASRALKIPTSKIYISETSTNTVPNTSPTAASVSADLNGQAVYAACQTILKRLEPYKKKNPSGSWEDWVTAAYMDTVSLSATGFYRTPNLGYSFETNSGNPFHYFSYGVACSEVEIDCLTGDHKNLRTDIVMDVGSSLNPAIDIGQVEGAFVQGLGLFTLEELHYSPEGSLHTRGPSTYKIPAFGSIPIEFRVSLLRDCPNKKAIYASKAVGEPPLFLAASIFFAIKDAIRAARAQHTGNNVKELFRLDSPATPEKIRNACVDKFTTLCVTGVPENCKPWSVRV
# HCT-116 [3] = assay: Cytotoxicity against human HCT116 cells after 48 hrs by MTT assay; type: functional, cell-based; settings: HCT-116, 48 h
inhibition (INH) [2],Structure (SMILES),Activity (HCT-116 [1]),other results
,C[C@@H]1O[C@@H](OC[C@H]2O[C@@H](Oc3ccc(C=O)cc3)[C@H](O)[C@@H](O)[C@@H]2O)[C@H](O)[C@H](O[C@@H]2O[C@H](COC(=O)/C=C/c3ccccc3)[C@@H](O)[C@H](O)[C@H]2O)[C@H]1O,inactive,
Not Active,O=c1c(O[C@@H]2O[C@H](CO)[C@@H](O)[C@H](O)[C@H]2O[C@@H]2O[C@H](CO)[C@@H](O)[C@H](O)[C@H]2O)c(-c2ccc(O)c(O)c2)oc2cc(O)cc(O)c12,,
Not Active,O=C1C[C@H](c2ccc(O)c(O)c2)Oc2cc(O)cc(O[C@@H]3O[C@H](CO)[C@@H](O)[C@H](O)[C@H]3O[C@@H]3O[C@H](CO)[C@@H](O)[C@H](O)[C@H]3O)c21,,
,CC(=O)O[C@H](CCC/C=C/C=C/C=C/C=C/C=C/c1ccc(O[C@@H]2O[C@H](CO[C@@H]3O[C@@H](C)[C@H](O)[C@@H](O[C@@H]4O[C@H](COC(=O)/C=C/C=C/c5ccccc5)[C@@H](O)[C@H](O)[C@H]4O)[C@H]3O)[C@@H](O)[C@H](O)[C@H]2O)cc1)C(=O)O,inactive,
Not Active,COc1cc2oc(-c3ccc(O)c(O)c3)cc(=O)c2c(O)c1[C@@H]1O[C@H](CO)[C@@H](O)[C@H](O)[C@H]1O,,
,CC(=O)O[C@H](CCC/C=C/C=C/C=C/C=C/C=C/c1ccc(O[C@@H]2O[C@H](CO[C@@H]3O[C@@H](C)[C@H](O)[C@@H](O[C@@H]4O[C@H](COC(=O)/C=C/c5ccccc5)[C@@H](O)[C@H](O)[C@H]4O)[C@H]3O)[C@@H](O)[C@H](O)[C@H]2O)cc1)C(=O)O,inactive,
,CC(=O)O[C@H](CCC/C=C/C=C/C=C\C=C/C=C/c1ccc(O[C@@H]2O[C@H](CO[C@@H]3O[C@@H](C)[C@H](O)[C@@H](O[C@@H]4O[C@H](CO)[C@@H](O)[C@H](O)[C@H]4O)[C@H]3O)[C@@H](O)[C@H](O)[C@H]2O)cc1)C(=O)O,inactive,
,O=C1C[C@H](c2ccc(O)cc2)Oc2cc(O)cc(O[C@@H]3O[C@H](CO)[C@@H](O)[C@H](O)[C@H]3O[C@@H]3O[C@H](CO)[C@@H](O)[C@H](O)[C@H]3O)c21,,IC50 [2]: 95.4 µM
,CC(=O)O[C@@]12CO[C@@H]1C[C@H](O)[C@@]1(C)C(=O)[C@H](O)C3=C(C)[C@@H](OC(=O)[C@H](O)[C@@H](NC(=O)OC(C)(C)C)c4ccccc4)C[C@@](O)([C@@H](OC(=O)c4ccccc4)[C@H]21)C3(C)C [DOCETAXEL ANHYDROUS],,IC50 (HCT-116 [3]): 0.13 µM
Not Active,COc1cc2oc(-c3ccc(O)cc3)cc(=O)c2c(O)c1[C@@H]1O[C@H](CO)[C@@H](O)[C@H](O)[C@H]1O [SWERTISIN],,
Not Active,O=C1C[C@@H](c2ccc(O)c(O)c2)Oc2cc(O)cc(O[C@@H]3O[C@H](CO)[C@@H](O)[C@H](O)[C@H]3O[C@@H]3O[C@H](CO)[C@@H](O)[C@H](O)[C@H]3O)c21,,
